Results taken from ChEMBL document CHEMBL3991601, “The target landscape of clinical kinase drugs” (Science, 2017).
The source made the active and inactive calls.

target: cAMP-dependent protein kinase catalytic subunit beta (Homo sapiens, UniProt P22694); conditions: not given
Further: in the data inactive means no Kd found up to 30 µM.

Compound	Kd
CN1N=C(N)c2cn([C@@H]3O[C@H](COP(=O)(O)O)[C@@H](O)[C@H]3O)c3ncnc1c23 [TRICIRIBINE PHOSPHATE]	> 30 µM (inactive)
CC(C)Nc1cc(-c2c[nH]c(C(=O)N[C@H](CO)c3cccc(Cl)c3)c2)c(Cl)cn1 [ULIXERTINIB]	> 30 µM (inactive)
CCCS(=O)(=O)Nc1ccc(F)c(C(=O)c2c[nH]c3ncc(-c4ccc(Cl)cc4)cc23)c1F [VEMURAFENIB]	> 30 µM (inactive)

target: Serine/threonine-protein kinase MRCK beta (Homo sapiens, UniProt Q9Y5S2); conditions: not given
Sequence (Q9Y5S2 whole entry): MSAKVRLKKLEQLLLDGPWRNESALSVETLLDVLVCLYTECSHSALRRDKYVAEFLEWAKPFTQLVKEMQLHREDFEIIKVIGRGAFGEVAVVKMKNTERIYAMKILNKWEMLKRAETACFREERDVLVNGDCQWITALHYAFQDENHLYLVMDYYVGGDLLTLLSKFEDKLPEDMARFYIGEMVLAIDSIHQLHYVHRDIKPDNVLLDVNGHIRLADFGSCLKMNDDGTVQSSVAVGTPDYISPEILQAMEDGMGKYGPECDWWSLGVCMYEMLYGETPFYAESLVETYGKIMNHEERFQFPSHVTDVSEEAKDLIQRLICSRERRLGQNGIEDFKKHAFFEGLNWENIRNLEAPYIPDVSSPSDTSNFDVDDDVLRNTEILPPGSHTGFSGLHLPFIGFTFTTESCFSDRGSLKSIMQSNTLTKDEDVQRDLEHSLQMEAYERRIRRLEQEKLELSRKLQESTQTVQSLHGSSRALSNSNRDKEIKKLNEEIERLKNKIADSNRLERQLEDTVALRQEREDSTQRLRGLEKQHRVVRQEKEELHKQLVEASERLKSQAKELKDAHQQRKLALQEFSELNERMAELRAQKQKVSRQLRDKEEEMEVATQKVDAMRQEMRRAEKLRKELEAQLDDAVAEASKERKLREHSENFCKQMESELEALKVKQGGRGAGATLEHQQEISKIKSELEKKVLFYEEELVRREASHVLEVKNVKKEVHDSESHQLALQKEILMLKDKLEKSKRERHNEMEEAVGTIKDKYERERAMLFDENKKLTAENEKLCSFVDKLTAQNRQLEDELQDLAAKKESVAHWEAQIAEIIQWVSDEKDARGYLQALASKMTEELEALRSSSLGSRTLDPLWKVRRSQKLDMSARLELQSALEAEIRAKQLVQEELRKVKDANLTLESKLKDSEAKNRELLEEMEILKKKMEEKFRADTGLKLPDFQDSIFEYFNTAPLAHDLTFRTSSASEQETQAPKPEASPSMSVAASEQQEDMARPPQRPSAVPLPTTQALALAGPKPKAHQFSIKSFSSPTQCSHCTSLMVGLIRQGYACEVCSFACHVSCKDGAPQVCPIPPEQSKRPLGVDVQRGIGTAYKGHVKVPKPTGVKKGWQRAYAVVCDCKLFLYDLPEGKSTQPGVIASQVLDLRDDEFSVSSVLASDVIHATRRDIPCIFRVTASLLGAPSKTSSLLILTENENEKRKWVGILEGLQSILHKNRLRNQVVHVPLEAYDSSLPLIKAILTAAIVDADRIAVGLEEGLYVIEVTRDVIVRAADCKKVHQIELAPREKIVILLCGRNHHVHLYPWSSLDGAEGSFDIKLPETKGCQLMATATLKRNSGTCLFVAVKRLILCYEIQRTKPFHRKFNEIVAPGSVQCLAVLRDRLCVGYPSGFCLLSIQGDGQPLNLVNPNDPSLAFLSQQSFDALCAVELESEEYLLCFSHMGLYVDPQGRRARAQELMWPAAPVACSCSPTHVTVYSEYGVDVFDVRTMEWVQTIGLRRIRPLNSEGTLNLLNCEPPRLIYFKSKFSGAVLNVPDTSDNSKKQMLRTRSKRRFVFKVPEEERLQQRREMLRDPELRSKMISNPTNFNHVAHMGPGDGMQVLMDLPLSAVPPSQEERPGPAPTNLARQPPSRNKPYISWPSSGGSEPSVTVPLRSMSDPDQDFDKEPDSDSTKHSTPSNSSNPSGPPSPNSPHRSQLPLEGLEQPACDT

Compound	Kd
CN1N=C(N)c2cn([C@@H]3O[C@H](COP(=O)(O)O)[C@@H](O)[C@H]3O)c3ncnc1c23 [TRICIRIBINE PHOSPHATE]	> 30 µM (inactive)
CC(C)Nc1cc(-c2c[nH]c(C(=O)N[C@H](CO)c3cccc(Cl)c3)c2)c(Cl)cn1 [ULIXERTINIB]	> 30 µM (inactive)
CCCS(=O)(=O)Nc1ccc(F)c(C(=O)c2c[nH]c3ncc(-c4ccc(Cl)cc4)cc23)c1F [VEMURAFENIB]	> 30 µM (inactive)

target: T1, Succinate--CoA ligase [ADP-forming] subunit beta, mitochondrial (Homo sapiens, UniProt Q9P2R7); conditions: not given
T1 sequence (Q9P2R7 whole entry): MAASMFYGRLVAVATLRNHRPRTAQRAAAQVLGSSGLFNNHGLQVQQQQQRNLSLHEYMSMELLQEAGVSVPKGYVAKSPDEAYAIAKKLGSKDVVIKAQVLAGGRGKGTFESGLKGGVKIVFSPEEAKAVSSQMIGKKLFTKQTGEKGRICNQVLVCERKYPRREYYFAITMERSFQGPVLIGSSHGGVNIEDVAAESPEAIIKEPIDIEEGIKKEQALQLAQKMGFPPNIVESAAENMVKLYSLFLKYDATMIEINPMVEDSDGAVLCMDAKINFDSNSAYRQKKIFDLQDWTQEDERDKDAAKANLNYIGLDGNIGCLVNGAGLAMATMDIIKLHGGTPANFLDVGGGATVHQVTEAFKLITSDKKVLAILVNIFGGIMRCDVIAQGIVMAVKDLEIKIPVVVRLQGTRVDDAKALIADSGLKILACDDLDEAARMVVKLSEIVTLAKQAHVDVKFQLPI

Compound	Kd
CN1N=C(N)c2cn([C@@H]3O[C@H](COP(=O)(O)O)[C@@H](O)[C@H]3O)c3ncnc1c23 [TRICIRIBINE PHOSPHATE]	> 30 µM (inactive)
CC(C)Nc1cc(-c2c[nH]c(C(=O)N[C@H](CO)c3cccc(Cl)c3)c2)c(Cl)cn1 [ULIXERTINIB]	> 30 µM (inactive)
CCCS(=O)(=O)Nc1ccc(F)c(C(=O)c2c[nH]c3ncc(-c4ccc(Cl)cc4)cc23)c1F [VEMURAFENIB]	> 30 µM (inactive)

target: Tyrosine-protein kinase SYK (Homo sapiens, UniProt P43405); conditions: not given

Compound	Kd
CN1N=C(N)c2cn([C@@H]3O[C@H](COP(=O)(O)O)[C@@H](O)[C@H]3O)c3ncnc1c23 [TRICIRIBINE PHOSPHATE]	> 30 µM (inactive)
CC(C)Nc1cc(-c2c[nH]c(C(=O)N[C@H](CO)c3cccc(Cl)c3)c2)c(Cl)cn1 [ULIXERTINIB]	> 30 µM (inactive)
CCCS(=O)(=O)Nc1ccc(F)c(C(=O)c2c[nH]c3ncc(-c4ccc(Cl)cc4)cc23)c1F [VEMURAFENIB]	> 30 µM (inactive)

target: Cyclin-dependent kinase 4 (Homo sapiens, UniProt P11802); conditions: not given
Sequence (P11802 whole entry): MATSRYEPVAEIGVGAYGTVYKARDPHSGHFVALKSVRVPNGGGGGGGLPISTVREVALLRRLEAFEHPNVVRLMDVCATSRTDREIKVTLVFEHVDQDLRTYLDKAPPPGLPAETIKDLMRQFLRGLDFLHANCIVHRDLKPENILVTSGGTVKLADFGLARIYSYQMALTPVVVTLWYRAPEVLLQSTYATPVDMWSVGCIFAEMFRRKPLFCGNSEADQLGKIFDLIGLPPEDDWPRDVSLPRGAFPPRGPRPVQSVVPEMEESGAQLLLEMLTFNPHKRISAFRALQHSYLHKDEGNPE

Compound	Kd
CN1N=C(N)c2cn([C@@H]3O[C@H](COP(=O)(O)O)[C@@H](O)[C@H]3O)c3ncnc1c23 [TRICIRIBINE PHOSPHATE]	> 30 µM (inactive)
CC(C)Nc1cc(-c2c[nH]c(C(=O)N[C@H](CO)c3cccc(Cl)c3)c2)c(Cl)cn1 [ULIXERTINIB]	> 30 µM (inactive)
CCCS(=O)(=O)Nc1ccc(F)c(C(=O)c2c[nH]c3ncc(-c4ccc(Cl)cc4)cc23)c1F [VEMURAFENIB]	> 30 µM (inactive)

target: T2, Peroxisomal acyl-coenzyme A oxidase 3 (Homo sapiens, UniProt O15254); conditions: not given
T2 sequence (O15254 whole entry): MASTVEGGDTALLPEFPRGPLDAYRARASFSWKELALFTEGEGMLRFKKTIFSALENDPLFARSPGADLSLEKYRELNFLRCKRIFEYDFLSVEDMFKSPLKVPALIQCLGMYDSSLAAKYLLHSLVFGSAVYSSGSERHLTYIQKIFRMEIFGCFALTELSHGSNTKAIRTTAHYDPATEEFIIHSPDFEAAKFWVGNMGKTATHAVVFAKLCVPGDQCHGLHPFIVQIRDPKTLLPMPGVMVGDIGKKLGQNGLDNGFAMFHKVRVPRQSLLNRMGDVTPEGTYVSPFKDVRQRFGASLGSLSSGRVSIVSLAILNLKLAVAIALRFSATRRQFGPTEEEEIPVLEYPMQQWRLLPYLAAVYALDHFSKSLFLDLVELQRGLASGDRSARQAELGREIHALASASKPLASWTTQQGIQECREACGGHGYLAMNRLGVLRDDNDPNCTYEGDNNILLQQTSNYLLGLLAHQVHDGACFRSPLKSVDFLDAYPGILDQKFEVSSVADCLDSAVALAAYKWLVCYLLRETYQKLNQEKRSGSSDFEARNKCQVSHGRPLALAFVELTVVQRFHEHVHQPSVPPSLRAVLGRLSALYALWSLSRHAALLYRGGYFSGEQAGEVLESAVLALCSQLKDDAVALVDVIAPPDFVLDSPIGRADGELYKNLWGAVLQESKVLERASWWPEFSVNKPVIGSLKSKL

Compound	Kd
CN1N=C(N)c2cn([C@@H]3O[C@H](COP(=O)(O)O)[C@@H](O)[C@H]3O)c3ncnc1c23 [TRICIRIBINE PHOSPHATE]	> 30 µM (inactive)
CC(C)Nc1cc(-c2c[nH]c(C(=O)N[C@H](CO)c3cccc(Cl)c3)c2)c(Cl)cn1 [ULIXERTINIB]	> 30 µM (inactive)
CCCS(=O)(=O)Nc1ccc(F)c(C(=O)c2c[nH]c3ncc(-c4ccc(Cl)cc4)cc23)c1F [VEMURAFENIB]	> 30 µM (inactive)

target: Activin receptor type-2B (Homo sapiens, UniProt Q13705); conditions: not given
Sequence (Q13705 whole entry): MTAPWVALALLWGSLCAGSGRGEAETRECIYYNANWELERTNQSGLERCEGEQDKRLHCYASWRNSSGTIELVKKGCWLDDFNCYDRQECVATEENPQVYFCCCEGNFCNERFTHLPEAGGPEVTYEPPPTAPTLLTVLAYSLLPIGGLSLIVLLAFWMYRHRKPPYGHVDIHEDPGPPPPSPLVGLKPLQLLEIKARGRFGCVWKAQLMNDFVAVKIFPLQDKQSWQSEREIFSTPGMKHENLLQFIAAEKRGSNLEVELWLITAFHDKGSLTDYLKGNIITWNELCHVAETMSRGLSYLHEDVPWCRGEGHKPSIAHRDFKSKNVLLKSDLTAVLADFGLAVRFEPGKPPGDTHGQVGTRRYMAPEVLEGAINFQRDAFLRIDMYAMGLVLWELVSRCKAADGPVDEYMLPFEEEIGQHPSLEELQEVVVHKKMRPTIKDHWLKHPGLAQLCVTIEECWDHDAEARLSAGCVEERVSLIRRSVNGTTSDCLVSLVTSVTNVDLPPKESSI

Compound	Kd
CN1N=C(N)c2cn([C@@H]3O[C@H](COP(=O)(O)O)[C@@H](O)[C@H]3O)c3ncnc1c23 [TRICIRIBINE PHOSPHATE]	> 30 µM (inactive)
CC(C)Nc1cc(-c2c[nH]c(C(=O)N[C@H](CO)c3cccc(Cl)c3)c2)c(Cl)cn1 [ULIXERTINIB]	> 30 µM (inactive)
CCCS(=O)(=O)Nc1ccc(F)c(C(=O)c2c[nH]c3ncc(-c4ccc(Cl)cc4)cc23)c1F [VEMURAFENIB]	> 30 µM (inactive)

target: T3, Delta(24)-sterol reductase (Homo sapiens, UniProt Q15392); conditions: not given
T3 sequence (Q15392 whole entry): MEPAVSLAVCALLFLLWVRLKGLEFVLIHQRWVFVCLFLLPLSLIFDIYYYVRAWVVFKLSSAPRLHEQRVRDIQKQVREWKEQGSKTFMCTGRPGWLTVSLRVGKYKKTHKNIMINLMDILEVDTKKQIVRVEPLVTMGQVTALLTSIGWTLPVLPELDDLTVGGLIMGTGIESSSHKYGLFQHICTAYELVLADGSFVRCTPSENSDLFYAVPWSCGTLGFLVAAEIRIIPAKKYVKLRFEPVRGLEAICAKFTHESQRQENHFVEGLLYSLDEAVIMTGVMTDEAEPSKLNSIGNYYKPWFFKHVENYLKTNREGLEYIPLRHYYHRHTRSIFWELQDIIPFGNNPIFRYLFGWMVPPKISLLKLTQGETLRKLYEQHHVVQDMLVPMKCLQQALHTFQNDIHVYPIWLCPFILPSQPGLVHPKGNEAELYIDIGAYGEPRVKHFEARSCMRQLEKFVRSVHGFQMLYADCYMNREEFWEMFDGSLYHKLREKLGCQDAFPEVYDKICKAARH

Compound	Kd
CN1N=C(N)c2cn([C@@H]3O[C@H](COP(=O)(O)O)[C@@H](O)[C@H]3O)c3ncnc1c23 [TRICIRIBINE PHOSPHATE]	> 30 µM (inactive)
CC(C)Nc1cc(-c2c[nH]c(C(=O)N[C@H](CO)c3cccc(Cl)c3)c2)c(Cl)cn1 [ULIXERTINIB]	> 30 µM (inactive)
CCCS(=O)(=O)Nc1ccc(F)c(C(=O)c2c[nH]c3ncc(-c4ccc(Cl)cc4)cc23)c1F [VEMURAFENIB]	> 30 µM (inactive)

target: Mitogen-activated protein kinase 8 (Homo sapiens, UniProt P45983); conditions: not given
Sequence (P45983 whole entry): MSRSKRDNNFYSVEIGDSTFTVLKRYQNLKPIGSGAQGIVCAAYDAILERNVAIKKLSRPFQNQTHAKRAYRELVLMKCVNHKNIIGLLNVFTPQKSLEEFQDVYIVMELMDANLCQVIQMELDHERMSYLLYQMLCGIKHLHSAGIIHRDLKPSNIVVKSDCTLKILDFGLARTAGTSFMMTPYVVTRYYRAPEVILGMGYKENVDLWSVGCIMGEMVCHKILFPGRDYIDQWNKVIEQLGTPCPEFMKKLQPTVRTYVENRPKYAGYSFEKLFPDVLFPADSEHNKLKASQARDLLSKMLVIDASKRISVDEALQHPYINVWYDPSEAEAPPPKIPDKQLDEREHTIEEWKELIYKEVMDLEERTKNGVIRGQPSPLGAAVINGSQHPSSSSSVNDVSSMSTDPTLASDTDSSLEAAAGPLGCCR

Compound	Kd
CN1N=C(N)c2cn([C@@H]3O[C@H](COP(=O)(O)O)[C@@H](O)[C@H]3O)c3ncnc1c23 [TRICIRIBINE PHOSPHATE]	> 30 µM (inactive)
CC(C)Nc1cc(-c2c[nH]c(C(=O)N[C@H](CO)c3cccc(Cl)c3)c2)c(Cl)cn1 [ULIXERTINIB]	> 30 µM (inactive)
CCCS(=O)(=O)Nc1ccc(F)c(C(=O)c2c[nH]c3ncc(-c4ccc(Cl)cc4)cc23)c1F [VEMURAFENIB]	> 30 µM (inactive)

target: T4, Glycogen phosphorylase, liver form (Homo sapiens, UniProt P06737); assay type: subcellular, K-562, COLO 205, SK-N-BE(2) and MV-4-11, Cell lysate; conditions: read-out: Kd apparent
T4 sequence (P06737 whole entry): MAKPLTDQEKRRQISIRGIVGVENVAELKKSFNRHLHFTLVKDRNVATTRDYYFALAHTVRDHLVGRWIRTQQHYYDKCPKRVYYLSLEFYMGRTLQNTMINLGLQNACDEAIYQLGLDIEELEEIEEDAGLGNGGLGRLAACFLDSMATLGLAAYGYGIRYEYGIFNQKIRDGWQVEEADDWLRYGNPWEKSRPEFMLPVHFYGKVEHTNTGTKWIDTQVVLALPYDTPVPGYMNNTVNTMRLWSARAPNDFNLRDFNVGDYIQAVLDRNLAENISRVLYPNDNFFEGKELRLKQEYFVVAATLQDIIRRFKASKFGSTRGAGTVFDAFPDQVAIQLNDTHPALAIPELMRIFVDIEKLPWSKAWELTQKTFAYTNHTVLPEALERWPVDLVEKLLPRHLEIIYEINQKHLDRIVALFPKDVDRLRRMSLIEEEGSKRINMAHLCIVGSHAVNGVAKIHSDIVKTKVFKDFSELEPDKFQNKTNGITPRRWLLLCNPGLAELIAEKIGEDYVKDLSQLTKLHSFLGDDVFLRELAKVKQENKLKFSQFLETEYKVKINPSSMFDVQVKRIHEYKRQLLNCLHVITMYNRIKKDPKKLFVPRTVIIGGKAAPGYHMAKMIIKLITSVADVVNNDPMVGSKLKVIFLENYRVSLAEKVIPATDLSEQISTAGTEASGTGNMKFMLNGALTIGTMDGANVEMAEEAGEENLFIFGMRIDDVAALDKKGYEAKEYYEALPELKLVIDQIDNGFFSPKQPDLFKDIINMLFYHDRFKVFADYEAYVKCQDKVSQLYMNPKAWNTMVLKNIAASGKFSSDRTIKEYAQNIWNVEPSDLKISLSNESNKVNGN

Compound	Kd
CN1N=C(N)c2cn([C@@H]3O[C@H](COP(=O)(O)O)[C@@H](O)[C@H]3O)c3ncnc1c23 [TRICIRIBINE PHOSPHATE]	> 30 µM (inactive)
CC(C)Nc1cc(-c2c[nH]c(C(=O)N[C@H](CO)c3cccc(Cl)c3)c2)c(Cl)cn1 [ULIXERTINIB]	> 30 µM (inactive)
CCCS(=O)(=O)Nc1ccc(F)c(C(=O)c2c[nH]c3ncc(-c4ccc(Cl)cc4)cc23)c1F [VEMURAFENIB]	> 30 µM (inactive)

target: Tyrosine-protein kinase Fyn (Homo sapiens, UniProt P06241); conditions: not given
Sequence (P06241 whole entry): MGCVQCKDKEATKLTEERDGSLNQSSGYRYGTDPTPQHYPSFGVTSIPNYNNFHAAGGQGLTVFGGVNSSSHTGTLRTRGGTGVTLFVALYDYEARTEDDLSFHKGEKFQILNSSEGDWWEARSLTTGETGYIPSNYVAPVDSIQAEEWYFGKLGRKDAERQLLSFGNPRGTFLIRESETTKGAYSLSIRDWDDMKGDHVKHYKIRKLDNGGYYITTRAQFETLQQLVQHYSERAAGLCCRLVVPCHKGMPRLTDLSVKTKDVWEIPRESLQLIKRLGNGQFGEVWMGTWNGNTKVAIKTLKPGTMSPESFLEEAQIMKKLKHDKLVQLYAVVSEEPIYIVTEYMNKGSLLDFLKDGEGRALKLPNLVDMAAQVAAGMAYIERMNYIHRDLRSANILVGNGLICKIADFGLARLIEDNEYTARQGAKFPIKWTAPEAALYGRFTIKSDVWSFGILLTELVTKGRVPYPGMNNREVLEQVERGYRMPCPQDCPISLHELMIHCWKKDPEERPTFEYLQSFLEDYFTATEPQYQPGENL

Compound	Kd
CN1N=C(N)c2cn([C@@H]3O[C@H](COP(=O)(O)O)[C@@H](O)[C@H]3O)c3ncnc1c23 [TRICIRIBINE PHOSPHATE]	> 30 µM (inactive)
CC(C)Nc1cc(-c2c[nH]c(C(=O)N[C@H](CO)c3cccc(Cl)c3)c2)c(Cl)cn1 [ULIXERTINIB]	> 30 µM (inactive)
CCCS(=O)(=O)Nc1ccc(F)c(C(=O)c2c[nH]c3ncc(-c4ccc(Cl)cc4)cc23)c1F [VEMURAFENIB]	> 30 µM (inactive)
